According to patent publication US20230135894A1, “MK2 DEGRADERS AND USES THEREOF” (Kymera Therapeutics, Inc., priority 2021, published 2023):

Experiments:
[1] = molecular target: T1, MK2 (Homo sapiens, UniProt P49137); assay: MK2 degradation in human THP-1 monocytic cells (MSD, 24 h); format: cell-based; parameters: endogenous in cells; key to MK2 MSD THP-1 degradation 24 h GMean External Abs DC50: A (<0.001 μM); B (0.001-0.01 μM); C (0.01-0.1 μM); D (>0.1 μM); —: “-”=not tested or inactive; conditions: for Dmax: THP-1, THP-1 cells; for DC50: read-out: MK2 MSD THP-1 degradation 24 h GMean External Abs DC50
T1 sequence (P49137 whole entry): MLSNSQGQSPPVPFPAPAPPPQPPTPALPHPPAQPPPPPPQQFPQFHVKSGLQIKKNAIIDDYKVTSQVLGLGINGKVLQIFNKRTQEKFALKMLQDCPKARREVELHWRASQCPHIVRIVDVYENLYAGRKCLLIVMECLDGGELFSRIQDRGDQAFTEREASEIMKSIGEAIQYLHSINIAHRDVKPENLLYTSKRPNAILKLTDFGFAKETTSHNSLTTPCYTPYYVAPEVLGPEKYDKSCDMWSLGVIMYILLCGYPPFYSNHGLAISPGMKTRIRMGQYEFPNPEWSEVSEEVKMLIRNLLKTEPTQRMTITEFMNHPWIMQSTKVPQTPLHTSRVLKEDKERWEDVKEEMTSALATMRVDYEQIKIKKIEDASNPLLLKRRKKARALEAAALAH
Method in brief: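 THP-1 cells (200,000/well) treated 24 h at 37 °C with compound dilution series (up to 10 points, 0.1% DMSO). MK2 in RIPA lysates quantified by MSD sandwich immunoassay. DC50 from 4-parameter logistic fit, DMSO-treated cells as high and lysis buffer as low signal.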

[2] = molecular target: T1, MK2; assay: MK2 degradation in human SW1353 cells (MSD, 24 h); format: cell-based; parameters: endogenous in cells; host or cells: SW-1353 (ATCC HTB-94); key to MK2 MSD SW1353 degradation 24 h GMean External Abs DC50: A (<0.001 μM); B (0.001-0.01 μM); C (0.01-0.1 μM); D (>0.1 μM); —: “-”=not tested or inactive; key to MK2 MSD SW 1353 24 h Dmax %: —: “-”=not tested or inactive; conditions: for Dmax: read-out: MK2 MSD SW 1353 24 h Dmax %; for DC50: read-out: MK2 MSD SW1353 degradation 24 h GMean External Abs DC50
Method in brief: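 SW1353 chondrosarcoma cells were treated with up to 10-point serial dilutions (0.1% DMSO) for 24 h at 37 °C, then lysed in RIPA buffer. MK2 levels were quantified by MSD sandwich immunoassay; DC50 came from a 4-parameter logistic fit normalised to DMSO-treated cells (high) and lysis buffer (low).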

Dmax [1] | DC50 ([1]; THP-1 cells) | Dmax [2] | DC50 [2] | MK2 MSD SW 1353 24 h Dmax % [2] | MK2 MSD SW1353 degradation 24 h GMean External Abs DC50 [2] | MK2 MSD THP-1 degradation 24 h GMean External Abs DC50 ([1]; THP-1 cells) | Compound
> 75% | < 1 nM | > 75% | < 1 nM |  |  |  | C[C@@H]1CNc2c(sc3ccc4nc(-c5ccc(N6CCN(CC7CCN(c8cccc9c8n(C)c(=O)n9C8CCC(=O)NC8=O)CC7)CC6)nc5)ccc4c23)C(=O)N1 (stereo partly shown) [Compound I-125]
> 75% | 1 to 10 nM |  |  | — | — |  | C[C@@H]1CNc2c(sc3ccc4nc(N5CCN(CC6CCN(c7cccc8c7n(C)c(=O)n8C7CCC(=O)NC7=O)CC6)CC5)ccc4c23)C(=O)N1 (stereo partly shown) [Compound I-196]
> 75% | < 1 nM | > 75% | < 1 nM |  |  |  | CC(C)Oc1cc(-c2ccc3c(ccc4sc5c(c43)NC[C@@H](C)NC5=O)n2)cc(N2CCN(CC3CCN(c4ccc5c(c4)n(C)c(=O)n5C4CCC(=O)NC4=O)CC3)CC2)c1 (stereo partly shown) [Compound I-230]
> 75% | 1 to 10 nM | > 75% | < 1 nM |  |  |  | C[C@@H]1CNc2c(sc3ccc4nc(N5CCC(CN6CC7(C6)CN(c6ccc8c(c6)n(C)c(=O)n8C6CCC(=O)NC6=O)C7)CC5)ccc4c23)C(=O)N1 (stereo partly shown) [Compound I-439]
> 75% | < 1 nM | > 75% | < 1 nM |  |  |  | C[C@@H]1CNc2c(sc3ccc4nc(-c5ccc(N6CCN(CC7CN(c8cccc9c8n(C)c(=O)n9C8CCC(=O)NC8=O)C7)CC6)nc5)ccc4c23)C(=O)N1 (stereo partly shown) [Compound I-245]
> 75% | < 1 nM | > 75% | < 1 nM |  |  |  | Cn1c(=O)n(C2CCC(=O)NC2=O)c2cccc(N3CC(N4CCN(c5ccc(-c6cc(-c7cc8c([nH]7)C7(CC7)CNC8=O)ccn6)cc5)CC4)C3)c21 (stereo not shown) [Compound I-419]
> 75% | < 1 nM | > 75% | 1 to 10 nM |  |  |  | C[C@@H]1CNc2c(sc3ccc4nc(-c5cccc(N6CCN(CCCc7cccc8c7n(C)c(=O)n8C7CCC(=O)NC7=O)CC6)c5)ccc4c23)C(=O)N1 (stereo partly shown) [Compound I-93]
> 75% | < 1 nM | > 75% | < 1 nM |  |  |  | Cn1c(=O)n(C2CCC(=O)NC2=O)c2cccc(N3CC(CN4CCN(c5ccc(-c6cc(-c7cc8c([nH]7)C7(CC7)CNC8=O)ccn6)cc5)CC4)C3)c21 (stereo not shown) [Compound I-190]
> 75% | 1 to 10 nM | > 75% | 1 to 10 nM |  |  |  | C[C@@H]1CNc2c(sc3ccc4nc(-c5ccc(N6CCN(CCCCOc7ccc(N8CCC(=O)NC8=O)cc7)CC6)nc5)ccc4c23)C(=O)N1 [Compound I-437]
> 75% | 1 to 10 nM | > 75% |  |  | — |  | Cn1c(=O)n(C2CCC(=O)NC2=O)c2cccc(CCN3CCN(c4ccc(-c5cc(-c6cc7c([nH]6)C6(CC6)CNC7=O)ccn5)cc4)CC3)c21 (stereo not shown) [Compound I-203]

Second part, the molecule before the results:

Compound | Dmax [1] | DC50 ([1]; THP-1 cells) | Dmax [2] | DC50 [2] | MK2 MSD SW 1353 24 h Dmax % [2] | MK2 MSD SW1353 degradation 24 h GMean External Abs DC50 [2] | MK2 MSD THP-1 degradation 24 h GMean External Abs DC50 ([1]; THP-1 cells)
C[C@@H]1CNc2c(sc3ccc4nc(-c5ccc(N6CCN(CC7CCN(c8ccc9c(c8)CN(C8CCC(=O)NC8=O)C9=O)CC7)CC6)cc5)ccc4c23)C(=O)N1 (stereo partly shown) [Compound I-302] | > 75% | 1 to 10 nM | > 75% | 1 to 10 nM |  |  | 
C[C@@H]1CN(C)c2c(sc3ccc4nc(-c5ccc(N6CCN(CC7CCN(c8cccc9c8n(C)c(=O)n9C8CCC(=O)NC8=O)CC7)CC6)cc5)ccc4c23)C(=O)N1 (stereo partly shown) [Compound I-274] | > 75% | 10 to 100 nM | > 75% | 10 to 100 nM |  |  | 
C[C@@H]1CNc2c(sc3ccc4nc(-c5ccc(N6CCN(CCCCCCCCc7cccc8c7n(C)c(=O)n8C7CCC(=O)NC7=O)CC6)cc5)ccc4c23)C(=O)N1 (stereo partly shown) [Compound I-170] | > 75% | 1 to 10 nM | > 75% | 1 to 10 nM |  |  | 
Cn1c(=O)n(C2CCC(=O)NC2=O)c2ccc(N3CC(CN4CCN(c5ccc(-c6cc(-c7cc8c([nH]7)CCNC8=O)ccn6)c(F)c5)CC4)C3)cc21 (stereo not shown) [Compound I-423] | > 75% | < 1 nM | > 75% | < 1 nM |  |  | 
C[C@@H]1CNc2c(sc3ccc4nc(-c5cccc(C#CCCNC(=O)CCCCCCCCCc6ccc7c(c6)n(C)c(=O)n7C6CCC(=O)NC6=O)c5)ccc4c23)C(=O)N1 (stereo partly shown) [Compound I-45] | > 75% | 10 to 100 nM | > 75% | 10 to 100 nM |  |  | 
C[C@@H]1Cc2oc(-c3ccnc(-c4ccc(N5CCN(CC6CCN(c7ccc8c(c7)n(C)c(=O)n8C7CCC(=O)NC7=O)CC6)CC5)cc4)c3)cc2C(=O)N1 (stereo partly shown) [Compound I-208] | < 50% | > 100 nM | < 50% | > 100 nM |  |  | 
C[C@@H]1CNc2c(sc3ccc4nc(-c5cccc(N6CCN(CCCCCCCc7cccc8c7n(C)c(=O)n8C7CCC(=O)NC7=O)CC6)c5)ccc4c23)C(=O)N1 (stereo partly shown) [Compound I-95] | > 75% | < 1 nM | > 75% | 1 to 10 nM |  |  | 
Cn1c(=O)n(C2CCC(=O)NC2=O)c2ccc(N3CCC(CN4CCN(c5cc(-c6ccc7cc[nH]c7c6)cc(-c6cc(-c7cc8c([nH]7)CCNC8=O)ccn6)c5)CC4)CC3)cc21 (stereo not shown) [Compound I-206] | 50 to 75% | 1 to 10 nM |  |  | — | — | 
Cn1c(=O)n(C2CCC(=O)NC2=O)c2cccc(CCN3CCN(c4ccc(-c5cc(-c6cc7c([nH]6)C6(CC6)CNC7=O)ccn5)c(F)c4)CC3)c21 (stereo not shown) [Compound I-179] | > 75% |  | > 75% |  |  | — | —
C[C@@H]1CNc2c(sc3ccc4nc(-c5cc(Cl)cc(N6CCN(CC7CCN(c8ccc9c(c8)n(C)c(=O)n9C8CCC(=O)NC8=O)CC7)CC6)c5)ccc4c23)C(=O)N1 (stereo partly shown) [Compound I-216] | > 75% | < 1 nM | > 75% | 1 to 10 nM |  |  | 
C[C@@H]1CNc2c(sc3ccc4nc(-c5cccc(C6CCN(CCN7CCC(CCc8cccc9c8n(C)c(=O)n9C8CCC(=O)NC8=O)CC7)CC6)c5)ccc4c23)C(=O)N1 (stereo partly shown) [Compound I-104] | > 75% | 1 to 10 nM | > 75% | 10 to 100 nM |  |  | 
Cn1c(=O)n(C2CCC(=O)NC2=O)c2ccc(N3CCC4(CC3)CC(N3CCN(c5cc(-c6cc7c([nH]6)C6(CC6)CNC7=O)ccn5)CC3)C4)cc21 (stereo not shown) [Compound I-408] | < 50% | > 100 nM |  | > 100 nM | — |  | 
C[C@@H]1CNc2c(sc3ccc4nc(-c5cccc(N6CCC(CN7CCN(CCc8cccc9c8n(C)c(=O)n9C8CCC(=O)NC8=O)CC7)CC6)c5)ccc4c23)C(=O)N1 (stereo partly shown) [Compound I-107] | > 75% | < 1 nM | > 75% | 1 to 10 nM |  |  | 
C[C@@H]1CNc2c(sc3ccc4nc(-c5cccc(N6CCN(CCCCCc7cccc8c7n(C)c(=O)n8C7CCC(=O)NC7=O)CC6)c5)ccc4c23)C(=O)N1 (stereo partly shown) [Compound I-94] | > 75% | < 1 nM | > 75% | 1 to 10 nM |  |  | 
C[C@@H]1CNc2c(sc3ccc4nc(-c5ccc(N6CCC(CN7CCC(c8cccc9c8n(C)c(=O)n9C8CCC(=O)NC8=O)CC7)CC6)cc5)ccc4c23)C(=O)N1 (stereo partly shown) [Compound I-98] | > 75% | < 1 nM | > 75% | < 1 nM |  |  | 
CN1CC2(CNC(=O)c3c2[nH]c2c3CCc3cnc(-c4ccc(CN5CCC(OCC#Cc6ccc7c(c6)n(C)c(=O)n7C6CCC(=O)NC6=O)CC5)cc4F)cc3-2)C1 (stereo not shown) [Compound I-1] | < 50% | > 100 nM | < 50% | > 100 nM |  |  | 
C[C@@H]1CNc2c(sc3ccc4nc(-c5ccc(C#CCCNC(=O)CCCCCCCc6ccc7c(c6)n(C)c(=O)n7C6CCC(=O)NC6=O)cc5)ccc4c23)C(=O)N1 (stereo partly shown) [Compound I-55] | > 75% | 1 to 10 nM | > 75% | 1 to 10 nM |  |  | 
Cn1c(=O)n(C2CCC(=O)NC2=O)c2ccc(N3CCC(CN4CCN(c5ccc(-c6cc(-c7cc8c([nH]7)C7(CCCC7)CNC8=O)ccn6)c(F)c5)CC4)CC3)cc21 (stereo not shown) [Compound I-424] | > 75% | 1 to 10 nM | > 75% | < 1 nM |  |  | 
C[C@@H]1CNc2c(sc3ccc4nc(-c5ccc(N6CCN(CC7CCN(c8ccc9c(c8)n(C)c(=O)n9C8CCC(=O)NC8=O)CC7)CC6)nc5)ccc4c23)C(=O)N1 (stereo partly shown) [Compound I-129] | > 75% | < 1 nM | > 75% | < 1 nM |  |  | 
C[C@@H]1CNc2c(sc3ccc4nc(-c5ccc(N6CCC(CN7CCN(c8ccc9c(c8)n(C)c(=O)n9C8CCC(=O)NC8=O)CC7)CC6)cc5Cl)ccc4c23)C(=O)N1 (stereo partly shown) [Compound I-292] | > 75% | < 1 nM | > 75% | 1 to 10 nM |  |  | 
C[C@@H]1CNc2c(sc3ccc4nc(-c5ccc(N6CCN(C7CN(c8cccc9c8n(C)c(=O)n9C8CCC(=O)NC8=O)C7)CC6)cc5)ccc4c23)C(=O)N1 (stereo partly shown) [Compound I-262] | > 75% | < 1 nM | > 75% | < 1 nM |  |  | 
